US20200291018A1, “TAM KINASE INHIBITORS” (SYROS PHARMACEUTICALS, INC., priority 2017, published 2020)

What was measured:
TYRO3 = target: T1, TYRO3 (Homo sapiens, UniProt Q06418); assay: TR-FRET kinase activity assay, TYRO3; format: biochemical; conditions: ATP at Km, 60 minutes
T1 sequence (Q06418 41-890): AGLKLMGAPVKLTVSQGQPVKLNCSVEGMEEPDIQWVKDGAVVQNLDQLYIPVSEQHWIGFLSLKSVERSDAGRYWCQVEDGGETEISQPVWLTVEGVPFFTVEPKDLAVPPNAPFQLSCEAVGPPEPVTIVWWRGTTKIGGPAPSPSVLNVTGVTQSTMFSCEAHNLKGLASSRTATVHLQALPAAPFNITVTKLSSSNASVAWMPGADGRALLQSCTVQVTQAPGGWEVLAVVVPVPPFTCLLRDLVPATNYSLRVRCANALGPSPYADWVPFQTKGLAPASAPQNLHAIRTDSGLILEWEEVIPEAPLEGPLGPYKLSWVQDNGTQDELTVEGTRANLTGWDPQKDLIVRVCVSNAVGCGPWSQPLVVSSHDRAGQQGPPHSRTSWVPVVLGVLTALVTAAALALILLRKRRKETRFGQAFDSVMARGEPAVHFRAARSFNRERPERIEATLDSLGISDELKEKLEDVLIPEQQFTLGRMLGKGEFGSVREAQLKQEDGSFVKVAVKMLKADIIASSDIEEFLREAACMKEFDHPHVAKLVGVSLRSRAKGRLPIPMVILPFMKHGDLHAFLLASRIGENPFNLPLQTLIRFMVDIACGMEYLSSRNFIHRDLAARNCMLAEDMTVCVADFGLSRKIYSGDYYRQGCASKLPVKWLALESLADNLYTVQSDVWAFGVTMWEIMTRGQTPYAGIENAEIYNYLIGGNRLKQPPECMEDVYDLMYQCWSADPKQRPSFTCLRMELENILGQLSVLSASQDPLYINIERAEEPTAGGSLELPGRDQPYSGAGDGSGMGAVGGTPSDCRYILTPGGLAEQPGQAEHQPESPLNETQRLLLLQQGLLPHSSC
Procedure, shortened: (§1)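 TR-FRET signal from Eu-labeled phospho-site antibody bound to tyrosine-phosphorylated fluorescent peptide; inhibition lowers signal, giving IC50. Reactions: 50 mM HEPES pH 7.5, 10 mM MgCl2, 1 mM EGTA, 0.01% Brij 35, 1 mM DTT, ATP at Km per enzyme, 60 min, RT.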

MERTK = target: T2, MERTK (Homo sapiens, UniProt Q12866); assay: TR-FRET kinase activity assay, MERTK; format: biochemical; conditions: for IC50: TR-FRET activity assay, ATP at Km, 60 minutes, read-out: Mer IC50; for Mer/Flt3 ratio (FLT3 IC50/Mer IC50): ratio calculated as FLT3 IC50/Mer IC50
T2 sequence (Q12866 21-999): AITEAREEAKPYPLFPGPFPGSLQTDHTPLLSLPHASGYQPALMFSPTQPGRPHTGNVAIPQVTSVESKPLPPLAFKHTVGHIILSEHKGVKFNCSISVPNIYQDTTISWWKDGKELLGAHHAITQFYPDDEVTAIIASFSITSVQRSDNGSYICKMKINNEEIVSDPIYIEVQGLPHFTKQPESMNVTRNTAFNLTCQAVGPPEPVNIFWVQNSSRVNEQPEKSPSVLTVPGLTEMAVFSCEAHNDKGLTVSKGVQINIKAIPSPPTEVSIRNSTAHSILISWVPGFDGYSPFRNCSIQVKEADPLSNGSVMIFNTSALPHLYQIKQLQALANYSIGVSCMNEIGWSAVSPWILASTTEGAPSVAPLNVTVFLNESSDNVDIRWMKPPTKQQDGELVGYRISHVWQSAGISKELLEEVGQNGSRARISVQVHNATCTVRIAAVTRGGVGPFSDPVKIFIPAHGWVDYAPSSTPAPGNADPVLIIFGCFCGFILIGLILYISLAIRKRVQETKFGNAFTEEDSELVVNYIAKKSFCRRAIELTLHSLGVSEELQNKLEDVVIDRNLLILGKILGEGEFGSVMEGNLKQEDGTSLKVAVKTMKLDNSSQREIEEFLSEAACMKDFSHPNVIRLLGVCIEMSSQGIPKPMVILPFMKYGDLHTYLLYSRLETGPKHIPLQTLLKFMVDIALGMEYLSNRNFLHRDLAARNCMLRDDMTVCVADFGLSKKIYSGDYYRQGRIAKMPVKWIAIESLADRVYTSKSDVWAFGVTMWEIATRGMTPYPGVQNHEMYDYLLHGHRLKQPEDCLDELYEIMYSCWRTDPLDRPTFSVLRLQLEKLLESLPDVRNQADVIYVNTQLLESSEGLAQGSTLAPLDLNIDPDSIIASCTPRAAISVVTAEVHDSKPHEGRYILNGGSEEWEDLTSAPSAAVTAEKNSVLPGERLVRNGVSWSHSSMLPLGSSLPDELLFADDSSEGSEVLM
Procedure, shortened: as §1

SMILES: CCC(CC)Nc1ncc2c(=O)n(C3CCNCC3)cc([C@H]3CC[C@H](O)CC3)c2n1 [Compound 120]
- IC50 (TYRO3): ≤ 100 nM
- IC50 (MERTK): ≤ 100 nM
- Mer/Flt3 ratio (FLT3 IC50/Mer IC50) (MERTK): +++ (a ratio of >100)

SMILES: COC[C@H](C)Nc1ncc2c(OC3CCOCC3)ncc([C@H]3CC[C@H](O)CC3)c2n1 [Compound 122, (1S,4r)-4-(2-(((S)-1-methoxypropan-2-yl)amino)-5-((tetrahydro-2H-pyran-4-yl)oxy)pyrido[4,3-d]pyrimidin-8-yl)cyclohexan-1-ol]
- IC50 (TYRO3): 100 to 1000 nM
- IC50 (MERTK): ≤ 100 nM
- Mer/Flt3 ratio (FLT3 IC50/Mer IC50) (MERTK): +++ (a ratio of >100)

SMILES: CCCCNc1ncc2c(NC3CCOCC3)ncc([C@H]3CC[C@H](O)CC3)c2n1 [Compound 124]
- IC50 (TYRO3): ≤ 100 nM
- IC50 (MERTK): ≤ 100 nM
- Mer/Flt3 ratio (FLT3 IC50/Mer IC50) (MERTK): + (a ratio of >2.0 and <10)

SMILES: CCCCNc1ncc2c(OCCOC)ncc([C@H]3CC[C@H](O)CC3)c2n1 [Compound 125]
- IC50 (TYRO3): 1000 to 10000 nM
- IC50 (MERTK): ≤ 100 nM
- Mer/Flt3 ratio (FLT3 IC50/Mer IC50) (MERTK): NS (a ratio of ≤2.0)

SMILES: CCC[C@H](C)Nc1ncc2c(=O)n(C3CCNCC3)cc([C@H]3CC[C@H](O)CC3)c2n1 [Compound 126]
- IC50 (TYRO3): ≤ 100 nM
- IC50 (MERTK): ≤ 100 nM
- Mer/Flt3 ratio (FLT3 IC50/Mer IC50) (MERTK): +++ (a ratio of >100)

SMILES: COCCN1C(C)(C)CC(Oc2ncc([C@H]3CC[C@H](O)CC3)c3nc(N[C@@H](C)CC(F)(F)F)ncc23)CC1(C)C [Compound 355]
- IC50 (TYRO3): ≤ 100 nM
- IC50 (MERTK): ≤ 100 nM
- Mer/Flt3 ratio (FLT3 IC50/Mer IC50) (MERTK): +++ (a ratio of >100)

SMILES: Cc1ncc([C@H]2CC[C@H](O)CC2)c2nc(N[C@@H](C)CC(F)(F)F)ncc12 [Compound 356]
- IC50 (TYRO3): ≤ 100 nM
- IC50 (MERTK): ≤ 100 nM
- Mer/Flt3 ratio (FLT3 IC50/Mer IC50) (MERTK): +++ (a ratio of >100)

SMILES: COC[C@H](C)Nc1ncc2c(O[C@H]3CCOC3)ncc([C@H]3CC[C@H](O)CC3)c2n1 [Compound 357]
- IC50 (TYRO3): 100 to 1000 nM
- IC50 (MERTK): ≤ 100 nM
- Mer/Flt3 ratio (FLT3 IC50/Mer IC50) (MERTK): +++ (a ratio of >100)

SMILES: COC[C@H](C)Nc1ncc2c(OC3CCOCC3)ncc(C3CCC(F)(F)CC3)c2n1 [Compound 358]
- IC50 (TYRO3): 100 to 1000 nM
- IC50 (MERTK): ≤ 100 nM
- Mer/Flt3 ratio (FLT3 IC50/Mer IC50) (MERTK): ++ (a ratio of between 10 and 100)

SMILES: CCOc1ncc([C@H]2CC[C@H](O)CC2)c2nc(N[C@@H](C)CC(F)(F)F)ncc12 [Compound 359]
- IC50 (TYRO3): ≤ 100 nM
- IC50 (MERTK): ≤ 100 nM
- Mer/Flt3 ratio (FLT3 IC50/Mer IC50) (MERTK): +++ (a ratio of >100)

SMILES: C[C@@H](CC(F)(F)F)Nc1ncc2c(O[C@H]3C[C@@H](O)C3)ncc([C@H]3CC[C@H](O)CC3)c2n1 [Compound 360]
- IC50 (TYRO3): ≤ 100 nM
- IC50 (MERTK): ≤ 100 nM
- Mer/Flt3 ratio (FLT3 IC50/Mer IC50) (MERTK): +++ (a ratio of >100)

SMILES: COC[C@H](C)Nc1ncc2c(OC3CC(C)(C)N(C(C)=O)C(C)(C)C3)ncc([C@H]3CC[C@H](O)CC3)c2n1 [Compound 361]
- IC50 (TYRO3): 100 to 1000 nM
- IC50 (MERTK): ≤ 100 nM
- Mer/Flt3 ratio (FLT3 IC50/Mer IC50) (MERTK): +++ (a ratio of >100)

SMILES: COC[C@H](C)Nc1ncc2c(Nc3ccncc3)ncc([C@H]3CC[C@H](O)CC3)c2n1 [Compound 362]
- IC50 (TYRO3): 100 to 1000 nM
- IC50 (MERTK): ≤ 100 nM
- Mer/Flt3 ratio (FLT3 IC50/Mer IC50) (MERTK): +++ (a ratio of >100)

SMILES: COC[C@H](C)Nc1ncc2c(Nc3cccnc3)ncc([C@H]3CC[C@H](O)CC3)c2n1 [Compound 363]
- IC50 (TYRO3): ≤ 100 nM
- IC50 (MERTK): ≤ 100 nM
- Mer/Flt3 ratio (FLT3 IC50/Mer IC50) (MERTK): +++ (a ratio of >100)

SMILES: C[C@@H](CC(F)(F)F)Nc1ncc2c(O[C@H]3C[C@H](O)C3)ncc([C@H]3CC[C@H](O)CC3)c2n1 [Compound 364]
- IC50 (TYRO3): ≤ 100 nM
- IC50 (MERTK): ≤ 100 nM
- Mer/Flt3 ratio (FLT3 IC50/Mer IC50) (MERTK): +++ (a ratio of >100)

SMILES: C[C@H](Nc1ncc2c(OC3CCOCC3)ncc([C@H]3CC[C@H](O)CC3)c2n1)C(F)F [Compound 365]
- IC50 (TYRO3): ≤ 100 nM
- IC50 (MERTK): ≤ 100 nM
- Mer/Flt3 ratio (FLT3 IC50/Mer IC50) (MERTK): +++ (a ratio of >100)

SMILES: COC[C@H](C)Nc1ncc2c(O[C@@H]3CCN(C)C3)ncc([C@H]3CC[C@H](O)CC3)c2n1 [Compound 366]
- IC50 (TYRO3): 100 to 1000 nM
- IC50 (MERTK): ≤ 100 nM
- Mer/Flt3 ratio (FLT3 IC50/Mer IC50) (MERTK): +++ (a ratio of >100)

SMILES: CC[C@@H](C)Nc1ncc2c(OC3CC(C)(C)N(C)C(C)(C)C3)ncc([C@H]3CC[C@H](O)CC3)c2n1 [Compound 367]
- IC50 (TYRO3): ≤ 100 nM
- IC50 (MERTK): ≤ 100 nM
- Mer/Flt3 ratio (FLT3 IC50/Mer IC50) (MERTK): +++ (a ratio of >100)

SMILES: COC[C@H](C)Nc1ncc2c(O[C@H]3CCN(C)C3)ncc([C@H]3CC[C@H](O)CC3)c2n1 [Compound 368]
- IC50 (TYRO3): ≤ 100 nM
- IC50 (MERTK): ≤ 100 nM
- Mer/Flt3 ratio (FLT3 IC50/Mer IC50) (MERTK): +++ (a ratio of >100)

SMILES: COCCN1CCC(Oc2ncc([C@H]3CC[C@H](O)CC3)c3nc(N[C@@H](C)CC(F)(F)F)ncc23)CC1 [Compound 369]
- IC50 (TYRO3): ≤ 100 nM
- IC50 (MERTK): ≤ 100 nM
- Mer/Flt3 ratio (FLT3 IC50/Mer IC50) (MERTK): +++ (a ratio of >100)

SMILES: C[C@@H](CC(F)(F)F)Nc1ncc2c(OC3C[C@H]4CC[C@@H](C3)N4C)ncc([C@H]3CC[C@H](O)CC3)c2n1 (stereo partly drawn) [Compound 370]
- IC50 (TYRO3): ≤ 100 nM
- IC50 (MERTK): ≤ 100 nM
- Mer/Flt3 ratio (FLT3 IC50/Mer IC50) (MERTK): +++ (a ratio of >100)

SMILES: COC[C@H](C)Nc1ncc2c(OC3C[C@@H](C)N(C)[C@@H](C)C3)ncc([C@H]3CC[C@H](O)CC3)c2n1 (stereo partly drawn) [Compound 371]
- IC50 (TYRO3): ≤ 100 nM
- IC50 (MERTK): ≤ 100 nM
- Mer/Flt3 ratio (FLT3 IC50/Mer IC50) (MERTK): +++ (a ratio of >100)

SMILES: COC[C@H](C)Nc1ncc2c(Nc3ccnc(C)c3)ncc([C@H]3CC[C@H](O)CC3)c2n1 [Compound 372]
- IC50 (TYRO3): 100 to 1000 nM
- IC50 (MERTK): ≤ 100 nM
- Mer/Flt3 ratio (FLT3 IC50/Mer IC50) (MERTK): +++ (a ratio of >100)

SMILES: C[C@@H](CC(F)(F)F)Nc1ncc2c(OC3CCN(c4ncccn4)CC3)ncc([C@H]3CC[C@H](O)CC3)c2n1 [Compound 373]
- IC50 (TYRO3): ≤ 100 nM
- IC50 (MERTK): ≤ 100 nM
- Mer/Flt3 ratio (FLT3 IC50/Mer IC50) (MERTK): +++ (a ratio of >100)

SMILES: COC[C@H](C)Nc1ncc2c(Nc3ccc(C)nc3)ncc([C@H]3CC[C@H](O)CC3)c2n1 [Compound 374]
- IC50 (TYRO3): ≤ 100 nM
- IC50 (MERTK): ≤ 100 nM
- Mer/Flt3 ratio (FLT3 IC50/Mer IC50) (MERTK): +++ (a ratio of >100)

SMILES: Cc1nccc(N2CCC(Oc3ncc([C@H]4CC[C@H](O)CC4)c4nc(N[C@@H](C)CC(F)(F)F)ncc34)CC2)n1 [Compound 375]
- IC50 (TYRO3): ≤ 100 nM
- IC50 (MERTK): ≤ 100 nM
- Mer/Flt3 ratio (FLT3 IC50/Mer IC50) (MERTK): +++ (a ratio of >100)
